Results reported in ChEMBL document CHEMBL1255447, “Efflux pumps, OprD porin, AmpC beta-lactamase, and multiresistance in Pseudomonas aeruginosa isolates from cystic fibrosis patients” (2010).
Values after ≈ are worked out from the molar mass of the structure shown.

What was measured:
Pseudomonas aeruginosa [1] = experiment: Antimicrobial activity against Pseudomonas aeruginosa M1251 by Etest
Pseudomonas aeruginosa [2] = experiment: Antimicrobial activity against Pseudomonas aeruginosa AHP Etest; assay type: functional
Pseudomonas aeruginosa [3] = experiment: Antimicrobial activity against Pseudomonas aeruginosa Z799/61 by Etest; assay type: functional
Pseudomonas aeruginosa [4] = experiment: Antimicrobial activity against Pseudomonas aeruginosa isolate 1530c from fibrosis patient by Etest; assay type: functional
Pseudomonas aeruginosa [5] = experiment: Antimicrobial activity against Pseudomonas aeruginosa isolate 1693c from fibrosis patient by Etest; assay type: functional
Pseudomonas aeruginosa [6] = experiment: Antimicrobial activity against Pseudomonas aeruginosa isolate 17145c from fibrosis patient by Etest; assay type: functional
Pseudomonas aeruginosa [7] = experiment: Antimicrobial activity against Pseudomonas aeruginosa isolate 1529c from fibrosis patient by Etest; assay type: functional
Pseudomonas aeruginosa [8] = experiment: Antimicrobial activity against Pseudomonas aeruginosa isolate 1247c from fibrosis patient by Etest; assay type: functional
Pseudomonas aeruginosa [9] = experiment: Antimicrobial activity against Pseudomonas aeruginosa isolate 1681c from fibrosis patient by Etest; assay type: functional
Pseudomonas aeruginosa [10] = experiment: Antimicrobial activity against Pseudomonas aeruginosa isolate 1352c from fibrosis patient by Etest; assay type: functional
Pseudomonas aeruginosa [11] = experiment: Antimicrobial activity against Pseudomonas aeruginosa isolate 1248c from fibrosis patient by Etest; assay type: functional
Pseudomonas aeruginosa [12] = experiment: Antimicrobial activity against Pseudomonas aeruginosa isolate 15110c from fibrosis patient by Etest; assay type: functional
Pseudomonas aeruginosa [13] = experiment: Antimicrobial activity against Pseudomonas aeruginosa isolate 12142c from fibrosis patient by Etest; assay type: functional
Pseudomonas aeruginosa [14] = experiment: Antimicrobial activity against Pseudomonas aeruginosa isolate 1712c from fibrosis patient by Etest; assay type: functional
Pseudomonas aeruginosa [15] = experiment: Antimicrobial activity against Pseudomonas aeruginosa isolate 1495c from fibrosis patient by Etest; assay type: functional
Pseudomonas aeruginosa [16] = experiment: Antimicrobial activity against Pseudomonas aeruginosa isolate 1726 from fibrosis patient by Etest; assay type: functional
Pseudomonas aeruginosa [17] = experiment: Antimicrobial activity against Pseudomonas aeruginosa isolate 15107 from fibrosis patient by Etest; assay type: functional
Pseudomonas aeruginosa [18] = experiment: Antimicrobial activity against Pseudomonas aeruginosa isolate 16008 from fibrosis patient by Etest; assay type: functional
Pseudomonas aeruginosa [19] = experiment: Antimicrobial activity against Pseudomonas aeruginosa isolate 13167 from fibrosis patient by Etest; assay type: functional
Pseudomonas aeruginosa [20] = experiment: Antimicrobial activity against Pseudomonas aeruginosa isolate 1240 from fibrosis patient by Etest; assay type: functional
Pseudomonas aeruginosa [21] = experiment: Antimicrobial activity against Pseudomonas aeruginosa isolate 3149 from fibrosis patient by Etest; assay type: functional
Pseudomonas aeruginosa [22] = experiment: Antimicrobial activity against Pseudomonas aeruginosa isolate 1253 from fibrosis patient by Etest; assay type: functional
Pseudomonas aeruginosa [23] = experiment: Antimicrobial activity against Pseudomonas aeruginosa isolate 1665 from fibrosis patient by Etest; assay type: functional
Pseudomonas aeruginosa [24] = experiment: Antimicrobial activity against Pseudomonas aeruginosa isolate 17112 from fibrosis patient by Etest; assay type: functional
Pseudomonas aeruginosa [25] = experiment: microbe, parasite or virus in culture; settings: 2779-con
Description: Antimicrobial activity against Pseudomonas aeruginosa 2779-con by Etest

Pseudomonas aeruginosa [26] = experiment: microbe, parasite or virus in culture; settings: isolate 13120
Description: Antimicrobial activity against Pseudomonas aeruginosa isolate 13120 from fibrosis patient by Etest

Pseudomonas aeruginosa [27] = experiment: Antimicrobial activity against Pseudomonas aeruginosa R70 Etest; assay type: functional
Pseudomonas aeruginosa [28] = experiment: Antimicrobial activity against Pseudomonas aeruginosa 1405-con D2 by Etest; assay type: functional
Pseudomonas aeruginosa [29] = experiment: Antimicrobial activity against Pseudomonas aeruginosa isolate 14169c from fibrosis patient by Etest; assay type: functional
Pseudomonas aeruginosa [30] = experiment: Antimicrobial activity against Pseudomonas aeruginosa isolate 1333c from fibrosis patient by Etest; assay type: functional
Pseudomonas aeruginosa [31] = experiment: Antimicrobial activity against Pseudomonas aeruginosa isolate 12102 from fibrosis patient by Etest; assay type: functional
Pseudomonas aeruginosa [32] = experiment: Antimicrobial activity against Pseudomonas aeruginosa R20 Etest; assay type: functional

SMILES | MIC (Pseudomonas aeruginosa [1]) [µg/mL] | MIC (Pseudomonas aeruginosa [2]) [µg/mL] | MIC (Pseudomonas aeruginosa [3]) [µg/mL] | MIC (Pseudomonas aeruginosa [4]) [µg/mL] | MIC (Pseudomonas aeruginosa [5]) [µg/mL] | MIC (Pseudomonas aeruginosa [6]) [µg/mL] | MIC (Pseudomonas aeruginosa [7]) [µg/mL] | MIC (Pseudomonas aeruginosa [8]) [µg/mL] | MIC (Pseudomonas aeruginosa [9]) [µg/mL] | MIC (Pseudomonas aeruginosa [10]) [µg/mL] | MIC (Pseudomonas aeruginosa [11]) [µg/mL] | MIC (Pseudomonas aeruginosa [12]) [µg/mL] | MIC (Pseudomonas aeruginosa [13]) [µg/mL] | MIC (Pseudomonas aeruginosa [14]) [µg/mL] | MIC (Pseudomonas aeruginosa [15]) [µg/mL] | MIC (Pseudomonas aeruginosa [16]) [µg/mL] | MIC (Pseudomonas aeruginosa [17]) [µg/mL] | MIC (Pseudomonas aeruginosa [21]) [µg/mL] | MIC (Pseudomonas aeruginosa [23]) [µg/mL] | MIC (Pseudomonas aeruginosa [25]) [µg/mL] | also measured
C[C@H]1[C@H](NC(=O)/C(=N\OC(C)(C)C(=O)O)c2csc(N)n2)C(=O)N1S(=O)(=O)O [AZTREONAM] | 32 (≈ 73.5 µM) | 0.5 (≈ 1.15 µM) | ≤ 0.12 | 2 (≈ 4.59 µM) | 1 (≈ 2.3 µM) | 0.5 (≈ 1.15 µM) | 0.5 (≈ 1.15 µM) | 4 (≈ 9.19 µM) | 32 (≈ 73.5 µM) | 32 (≈ 73.5 µM) | > 64 | > 64 | > 64 | > 64 | > 64 | 0.5 (≈ 1.15 µM) | 2 (≈ 4.59 µM) | 64 (≈ 147 µM) | > 64 | 32 (≈ 73.5 µM) | MIC (Pseudomonas aeruginosa [18]): 0.5 µg/mL (≈ 1.15 µM); MIC (Pseudomonas aeruginosa [19]): 16 µg/mL (≈ 36.7 µM); MIC (Pseudomonas aeruginosa [20]): 4 µg/mL (≈ 9.19 µM); MIC (Pseudomonas aeruginosa [22]): 16 µg/mL (≈ 36.7 µM); MIC (Pseudomonas aeruginosa [24]): > 64 µg/mL; MIC (Pseudomonas aeruginosa [26]): 16 µg/mL (≈ 36.7 µM)
CC(C)(O/N=C(\C(=O)N[C@@H]1C(=O)N2C(C(=O)[O-])=C(C[n+]3ccccc3)CS[C@H]12)c1csc(N)n1)C(=O)O [CEFTAZIDIME] | 4 (≈ 7.32 µM) | 0.5 (≈ 0.915 µM) | ≤ 0.12 | 4 (≈ 7.32 µM) | 8 (≈ 14.6 µM) | 64 (≈ 117 µM) | 4 (≈ 7.32 µM) | 8 (≈ 14.6 µM) | 256 (≈ 468 µM) | 64 (≈ 117 µM) | 256 (≈ 468 µM) | 256 (≈ 468 µM) | 256 (≈ 468 µM) | > 256 | > 256 | 2 (≈ 3.66 µM) | 8 (≈ 14.6 µM) | 8 (≈ 14.6 µM) | 256 (≈ 468 µM) | 32 (≈ 58.5 µM) | MIC (Pseudomonas aeruginosa [27]): 8 µg/mL (≈ 14.6 µM); MIC (Pseudomonas aeruginosa [28]): 64 µg/mL (≈ 117 µM); MIC (Pseudomonas aeruginosa [29]): 8 µg/mL (≈ 14.6 µM); MIC (Pseudomonas aeruginosa [30]): 128 µg/mL (≈ 234 µM); MIC (Pseudomonas aeruginosa [19]): 64 µg/mL (≈ 117 µM); MIC (Pseudomonas aeruginosa [20]): 256 µg/mL (≈ 468 µM); MIC (Pseudomonas aeruginosa [31]): 4 µg/mL (≈ 7.32 µM); MIC (Pseudomonas aeruginosa [22]): 8 µg/mL (≈ 14.6 µM); MIC (Pseudomonas aeruginosa [24]): 64 µg/mL (≈ 117 µM); MIC (Pseudomonas aeruginosa [26]): 4 µg/mL (≈ 7.32 µM)
O=C(O)c1cn(C2CC2)c2cc(N3CCNCC3)c(F)cc2c1=O [CIPROFLOXACIN] |  | ≤ 0.12 | ≤ 0.12 |  | 1 (≈ 3.02 µM) | 4 (≈ 12.1 µM) |  | 4 (≈ 12.1 µM) |  |  | 4 (≈ 12.1 µM) |  | 4 (≈ 12.1 µM) | 4 (≈ 12.1 µM) | 4 (≈ 12.1 µM) |  |  | > 8 | 4 (≈ 12.1 µM) | ≤ 0.12 | MIC (Pseudomonas aeruginosa [32]): ≤ 0.12 µg/mL; MIC (Pseudomonas aeruginosa [29]): 1 µg/mL (≈ 3.02 µM); MIC (Pseudomonas aeruginosa [18]): 4 µg/mL (≈ 12.1 µM)
CC1(C)S[C@@H]2[C@H](NC(=O)C(C(=O)O)c3ccccc3)C(=O)N2[C@H]1C(=O)O (stereo not given in full) [CARBENICILLIN] | 512 (≈ 1350 µM) | 32 (≈ 84.6 µM) | ≤ 16 | 64 (≈ 169 µM) | 128 (≈ 338 µM) | ≤ 16 | 8 (≈ 21.1 µM) | 128 (≈ 338 µM) | 512 (≈ 1350 µM) | 512 (≈ 1350 µM) | > 512 | > 512 | > 512 | > 512 | > 512 | ≤ 16 | 128 (≈ 338 µM) | > 512 | > 512 | 128 (≈ 338 µM) | MIC (Pseudomonas aeruginosa [27]): > 512 µg/mL; MIC (Pseudomonas aeruginosa [32]): 64 µg/mL (≈ 169 µM); MIC (Pseudomonas aeruginosa [28]): 512 µg/mL (≈ 1350 µM); MIC (Pseudomonas aeruginosa [29]): 512 µg/mL (≈ 1350 µM); MIC (Pseudomonas aeruginosa [30]): > 512 µg/mL; MIC (Pseudomonas aeruginosa [18]): ≤ 16 µg/mL; MIC (Pseudomonas aeruginosa [19]): > 512 µg/mL; MIC (Pseudomonas aeruginosa [20]): 128 µg/mL (≈ 338 µM); MIC (Pseudomonas aeruginosa [31]): 256 µg/mL (≈ 677 µM); MIC (Pseudomonas aeruginosa [22]): 256 µg/mL (≈ 677 µM); MIC (Pseudomonas aeruginosa [24]): 512 µg/mL (≈ 1350 µM); MIC (Pseudomonas aeruginosa [26]): 256 µg/mL (≈ 677 µM)
NCC[C@H](O)C(=O)N[C@@H]1C[C@H](N)[C@@H](O[C@H]2O[C@H](CN)[C@@H](O)[C@H](O)[C@H]2O)[C@H](O)[C@H]1O[C@H]1O[C@H](CO)[C@@H](O)[C@H](N)[C@H]1O [AMIKACIN] | 1 (≈ 1.71 µM) | ≤ 0.5 | 1 (≈ 1.71 µM) | 32 (≈ 54.6 µM) | 1 (≈ 1.71 µM) | 64 (≈ 109 µM) | 64 (≈ 109 µM) | > 64 | 64 (≈ 109 µM) | > 64 | > 64 | > 64 | > 64 | > 64 | > 64 | 2 (≈ 3.42 µM) | > 64 | > 64 | > 64 | 1 (≈ 1.71 µM) | MIC (Pseudomonas aeruginosa [27]): 1 µg/mL (≈ 1.71 µM); MIC (Pseudomonas aeruginosa [32]): ≤ 0.5 µg/mL; MIC (Pseudomonas aeruginosa [28]): 4 µg/mL (≈ 6.83 µM); MIC (Pseudomonas aeruginosa [29]): 32 µg/mL (≈ 54.6 µM); MIC (Pseudomonas aeruginosa [30]): 64 µg/mL (≈ 109 µM); MIC (Pseudomonas aeruginosa [18]): 32 µg/mL (≈ 54.6 µM); MIC (Pseudomonas aeruginosa [19]): 64 µg/mL (≈ 109 µM); MIC (Pseudomonas aeruginosa [20]): 4 µg/mL (≈ 6.83 µM); MIC (Pseudomonas aeruginosa [31]): 4 µg/mL (≈ 6.83 µM); MIC (Pseudomonas aeruginosa [22]): 32 µg/mL (≈ 54.6 µM); MIC (Pseudomonas aeruginosa [24]): 1 µg/mL (≈ 1.71 µM); MIC (Pseudomonas aeruginosa [26]): 1 µg/mL (≈ 1.71 µM)
